The text below walks through data of ChEMBL document CHEMBL5252585, “Structure optimization and discovery of novel compound for the treatment of insertion mutations within exon 20 of EGFR and HER2” (Bioorg Med Chem, 2023).

Bounds are passed on as bounds.

A short description of data set [1]: Oral bioavailability in Sprague-Dawley rat at 10 mg/kg measured upto 8 hrs by LC-MS/MS analysis. The class given is ADME, organism-based. Particulars: in vivo.
Data set [2] can be described thus: Tmax in Sprague-Dawley rat at 10 mg/kg, po measured upto 8 hrs by LC-MS/MS analysis. Type of data set: ADME, organism-based. As to conditions: in vivo.
Data set [3] deals with Tyrosine-protein kinase Blk (Homo sapiens) (UniProt P51451). The data set can be described thus: Inhibition of BLK (unknown origin) at 500 nM relative to control.
Chain of Tyrosine-protein kinase Blk (Homo sapiens) (P51451 2-505 limits assumed): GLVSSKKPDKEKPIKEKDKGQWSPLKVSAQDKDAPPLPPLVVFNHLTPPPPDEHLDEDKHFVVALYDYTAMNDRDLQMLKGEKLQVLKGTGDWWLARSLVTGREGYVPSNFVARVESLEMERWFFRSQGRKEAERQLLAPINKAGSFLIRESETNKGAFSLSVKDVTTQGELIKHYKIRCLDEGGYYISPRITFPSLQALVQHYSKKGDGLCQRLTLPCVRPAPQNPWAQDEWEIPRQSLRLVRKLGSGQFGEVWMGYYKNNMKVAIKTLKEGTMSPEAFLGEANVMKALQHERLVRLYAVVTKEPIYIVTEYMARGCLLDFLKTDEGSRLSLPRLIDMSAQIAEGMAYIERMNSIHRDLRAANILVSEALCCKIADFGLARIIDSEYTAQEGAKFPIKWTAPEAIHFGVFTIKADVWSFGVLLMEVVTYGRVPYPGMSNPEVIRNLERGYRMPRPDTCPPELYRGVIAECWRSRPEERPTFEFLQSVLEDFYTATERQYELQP
Data set [4] is described as follows: Half life in Sprague-Dawley rat at 10 mg/kg, po measured upto 8 hrs by LC-MS/MS analysis. Type of data set: ADME, organism-based. As to conditions: in vivo.
Data set [5] addresses T1, Ephrin type-A receptor 3 (Homo sapiens) (UniProt P29320).
T1 sequence (whole entry): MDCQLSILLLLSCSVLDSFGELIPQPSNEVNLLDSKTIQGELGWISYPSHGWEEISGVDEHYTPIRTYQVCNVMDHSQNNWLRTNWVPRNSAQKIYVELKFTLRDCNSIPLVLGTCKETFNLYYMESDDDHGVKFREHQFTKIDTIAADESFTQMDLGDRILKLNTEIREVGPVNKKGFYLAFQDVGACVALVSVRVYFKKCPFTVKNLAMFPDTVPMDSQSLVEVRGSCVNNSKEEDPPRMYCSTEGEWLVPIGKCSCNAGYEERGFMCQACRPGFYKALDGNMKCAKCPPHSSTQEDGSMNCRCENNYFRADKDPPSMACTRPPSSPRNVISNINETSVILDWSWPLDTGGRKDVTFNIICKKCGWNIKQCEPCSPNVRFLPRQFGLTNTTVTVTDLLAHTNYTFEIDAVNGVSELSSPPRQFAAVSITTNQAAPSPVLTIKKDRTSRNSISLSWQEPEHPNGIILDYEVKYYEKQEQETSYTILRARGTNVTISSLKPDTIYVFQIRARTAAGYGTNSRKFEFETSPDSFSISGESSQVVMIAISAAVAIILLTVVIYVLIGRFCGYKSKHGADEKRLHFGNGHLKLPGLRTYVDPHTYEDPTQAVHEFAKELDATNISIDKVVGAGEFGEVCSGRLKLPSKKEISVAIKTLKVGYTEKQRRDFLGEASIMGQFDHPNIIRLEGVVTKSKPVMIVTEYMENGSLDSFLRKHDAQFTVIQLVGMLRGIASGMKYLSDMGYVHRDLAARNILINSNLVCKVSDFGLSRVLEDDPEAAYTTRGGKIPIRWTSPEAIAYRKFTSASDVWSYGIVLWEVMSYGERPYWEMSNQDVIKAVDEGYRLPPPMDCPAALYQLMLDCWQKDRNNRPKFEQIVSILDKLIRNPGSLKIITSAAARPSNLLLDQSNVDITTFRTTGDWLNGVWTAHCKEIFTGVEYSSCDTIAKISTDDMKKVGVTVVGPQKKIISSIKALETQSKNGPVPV
The data set can be described thus: Inhibition of EPHA3 (unknown origin) at 500 nM relative to control.

Data set [6] has as its target T2, Tyrosine-protein kinase TXK (Homo sapiens) (UniProt P42681).
T2 sequence (whole entry): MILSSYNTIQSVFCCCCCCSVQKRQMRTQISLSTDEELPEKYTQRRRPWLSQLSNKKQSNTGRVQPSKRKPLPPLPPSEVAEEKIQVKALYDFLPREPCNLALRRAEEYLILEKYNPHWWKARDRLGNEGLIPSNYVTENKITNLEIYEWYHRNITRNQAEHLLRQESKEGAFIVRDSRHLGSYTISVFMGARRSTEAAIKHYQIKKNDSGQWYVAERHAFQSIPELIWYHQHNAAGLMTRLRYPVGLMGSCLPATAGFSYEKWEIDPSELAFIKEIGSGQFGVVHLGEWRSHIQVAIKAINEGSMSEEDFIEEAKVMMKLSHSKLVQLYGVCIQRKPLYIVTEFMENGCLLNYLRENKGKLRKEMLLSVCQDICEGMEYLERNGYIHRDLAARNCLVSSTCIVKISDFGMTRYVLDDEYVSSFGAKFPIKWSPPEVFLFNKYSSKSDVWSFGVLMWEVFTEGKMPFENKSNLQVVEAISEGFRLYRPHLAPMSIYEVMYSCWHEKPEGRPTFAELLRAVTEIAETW
The data set can be described thus: Inhibition of TXK (unknown origin) at 500 nM relative to control.

Data set [7] in a line: Tmax in Sprague-Dawley rat at 10 mg/kg, iv measured upto 8 hrs by LC-MS/MS analysis. The class given is ADME, organism-based. Particulars: in vivo.
The next data set relates to BaF3. The data set can be described thus: Antitumor activity against mouse BaF3 cells implanted in BALB/c mouse harboring EGFR D770-N771 ins NPG mutant assessed as tumor growth inhibition at 20 mg/kg, po administered once daily for 13 to 14 days. Type of data set: functional. Particulars: time 13-14 day, read-out: TGI.
Data set [8] has as its target T3, Ephrin type-A receptor 6 (Homo sapiens) (UniProt Q9UF33).
T3 sequence (whole entry): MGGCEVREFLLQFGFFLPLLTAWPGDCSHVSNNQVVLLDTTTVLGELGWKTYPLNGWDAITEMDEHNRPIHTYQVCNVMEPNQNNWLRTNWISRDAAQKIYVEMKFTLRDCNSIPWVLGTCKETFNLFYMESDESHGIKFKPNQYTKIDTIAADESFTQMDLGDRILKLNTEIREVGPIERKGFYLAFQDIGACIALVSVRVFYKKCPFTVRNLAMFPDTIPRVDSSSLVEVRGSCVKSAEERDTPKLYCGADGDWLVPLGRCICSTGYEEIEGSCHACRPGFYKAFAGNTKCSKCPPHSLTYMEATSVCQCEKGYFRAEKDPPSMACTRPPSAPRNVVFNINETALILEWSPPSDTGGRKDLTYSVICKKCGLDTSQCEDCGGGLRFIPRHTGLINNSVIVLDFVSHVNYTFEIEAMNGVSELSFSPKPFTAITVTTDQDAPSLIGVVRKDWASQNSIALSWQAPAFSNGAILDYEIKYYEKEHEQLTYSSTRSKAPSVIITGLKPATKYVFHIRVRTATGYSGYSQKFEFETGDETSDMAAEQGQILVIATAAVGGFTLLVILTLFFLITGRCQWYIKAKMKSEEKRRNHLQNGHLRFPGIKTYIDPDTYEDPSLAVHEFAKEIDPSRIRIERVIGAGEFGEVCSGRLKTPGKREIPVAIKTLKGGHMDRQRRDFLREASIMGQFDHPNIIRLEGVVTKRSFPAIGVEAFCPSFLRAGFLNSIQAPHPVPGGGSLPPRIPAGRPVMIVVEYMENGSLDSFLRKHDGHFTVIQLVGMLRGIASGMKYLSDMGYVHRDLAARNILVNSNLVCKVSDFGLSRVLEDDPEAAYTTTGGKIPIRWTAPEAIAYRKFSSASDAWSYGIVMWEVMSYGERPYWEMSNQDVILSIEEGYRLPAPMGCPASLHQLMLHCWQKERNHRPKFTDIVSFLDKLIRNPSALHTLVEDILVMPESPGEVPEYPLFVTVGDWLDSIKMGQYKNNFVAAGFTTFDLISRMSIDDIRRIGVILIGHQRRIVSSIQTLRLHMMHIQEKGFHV
The data set can be described thus: Inhibition of EPHA6 (unknown origin) at 500 nM relative to control.

A word on the bioavailability: it is the share of a dose that reaches the circulation, judged against a reference dose that is usually intravenous. One may read the Tmax as the time at which the peak concentration occurs. Usually inhibition stands for the percentage by which the read-out fell short of the control. A low value points to a response near the control. What is called half-life is the time in which the quantity being followed falls by half. Low values mean fast loss, high ones slow loss. As for `C=CC(=O)N1CCC(Oc2cc3c(Nc4cccc(Cl)c4F)ncnc3cc2O[C@H]2CCOC2)CC1`, the bioavailability in [1] came out at 68%. Moreover, the results for the Tmax in [2] and in [7] were 1.33 h and 4.98 min, respectively. Moreover, the inhibition in [3], in [5], in data set [6] and in [8] was > 20% throughout. In addition, the half-life in [4] was 6.93 h. In the data set on BaF3, the inhibition in vivo at 20 mg/kg amounted to 83%.
